According to US20030124566A1, “5-Hydroxytryptamine transporter gene polymorphisms” (priority 2000, published 2003):
Where a name gives a salt, the structure may show the parent alone.

What was measured:
[1] = test system: female human subjects with IBS (non-constipated); experiment: Double-blind, placebo controlled clinical trials of alosetron for the treatment of IBS, response stratified by 5HTT genotype; format: in vivo; conditions: for proportion of patients achieving response (relief of IBS symptoms): relief during six weeks of twelve week treatment
Source text: FIG. 1 is a graph based on data collected from female patients enrolled in clinical trials of alosetron for the treatment of IBS. The study population was comprised of non-constipated individuals with IBS. The subjects were divided into 5HTT genotypes. Of the 219 subjects, 71 (32.4%) were del/del 5HTT, 75 (34.2%) were del/ins 5HTT and 73 (33.3%) were ins/ins 5HTT. […] “Response” was defined as relief of IBS symptoms (abdominal pain and discomfort) during six weeks of a twelve week treatment study. Two hundred and nineteen subjects, received either alosetron (102 subjects) or matched placebo (117 subjects). The proportion of patients achieving response following treatment with alosetron was 68% (21/31) for del/del 5HTT, 64% (21/33) for del/ins 5HTT and 58% (22/38) for ins/ins 5HTT. The proportion of patients achieving response following treatment with placebo was 58% (23/40) for del/del 5HTT, 38% (16/42) for del/ins 5HTT and 34% (12/35) for ins/ins 5HTT.
FIG. 2 compares, among 5HTT genotypes, the percentage of alosetron-treated subjects who reported constipation. Of the 102 alosetron treated subjects, the proportion of subjects reporting constipation was 13% (4/31) for del/del 5HTT, 30% (10/33) for del/ins 5HTT and 21% (8/38) for ins/ins 5HTT.
Genetic samples were obtained from 219 female human subjects enrolled in clinical trials of alosetron for the treatment of IBS. Using PCR technology as is known in the art, an insertion/deletion genetic marker was assayed in the 5-hydroxytryptamine transporter gene (5HTT gene). The alleles were labeled as “del” (deletion) or “ins” (insertion) resulting in three possible genotypes (del/del; del/ins or ins/ins).
The subjects' response to alosetron in the clinical trial setting was reviewed and correlated with genotype. In the double-blind, placebo controlled clinical trials, subjects received 12 weeks of treatment with either alosetron or a placebo. A favorable response to alosetron was when a subject reported relief of IBS symptoms during six weeks of the twelve week trial. The incidence of various other effects, including constipation, was also recorded.
The response of subjects to treatment with alosetron in the clinical trial was stratified according to genotype.
The occurrence of constipation during alosetron treatment in the clinical trial was stratified according to genotype. […] In del/del subjects (n=31), 4 (13%) reported constipation; in del/ins subjects (n=33), 10 (30%) reported constipation; and in ins/ins subjects (n=38), 8 (21)% reported constipation (FIG. 2).

[2] = test system: patients with Irritable Bowel Syndrome (IBS); conditions: double-blind, placebo controlled studies (literature); cited from earlier work

- proportion of subjects reporting constipation ([1]; del/del 5HTT genotype, alosetron-treated, 4/31 subjects): 13%
- proportion of subjects reporting constipation ([1]; del/ins 5HTT genotype, alosetron-treated, 10/33 subjects): 30%
- proportion of subjects reporting constipation ([1]; ins/ins 5HTT genotype, alosetron-treated, 8/38 subjects): 21%
- proportion of subjects reporting constipation ([1]; total group of subjects receiving alosetron (n=102)): 21%
Compound: Cc1[nH]cnc1CN1CCc2c(c3ccccc3n2C)C1=O [alosetron, Alosetron hydrochloride]
- proportion of patients achieving response (relief of IBS symptoms) ([1]; del/del 5HTT genotype, 21/31 subjects): 68%
- proportion of patients achieving response (relief of IBS symptoms) ([1]; del/ins 5HTT genotype, 21/33 subjects): 64%
- relief of IBS symptoms compared with placebo ([1]; in each of the three 5HTT genotypes): more effective than placebo
- proportion of patients achieving response (relief of IBS symptoms) ([1]; ins/ins 5HTT genotype, 22/38 subjects): 58%
- effect on pain and bowel function in IBS patients [2]: reduce pain and improve bowel function
